Activity calls are given as the source filed them. How the calls were made is not given here.
System: CCRIS mutagenicity, Ames/micronucleus/aberration tests
Assay: CCRIS mutagenicity studies
[1] = Test System: AMES SALMONELLA TYPHIMURIUM, Strain/Indicator: TA98, Metabolic Activation: NONE, Method: STANDARD PLATE
[2] = Test System: AMES SALMONELLA TYPHIMURIUM, Strain/Indicator: TA100, Metabolic Activation: NONE, Method: STANDARD PLATE
[3] = Test System: AMES SALMONELLA TYPHIMURIUM, Strain/Indicator: TA98, Metabolic Activation: NONE, Method: PREINCUBATION
[4] = Test System: AMES SALMONELLA TYPHIMURIUM, Strain/Indicator: TA98, Metabolic Activation: RAT, LIVER, S-9, AROCLOR 1254, Method: PREINCUBATION
[5] = Test System: AMES SALMONELLA TYPHIMURIUM, Strain/Indicator: TA100, Metabolic Activation: NONE, Method: PREINCUBATION
[6] = Test System: AMES SALMONELLA TYPHIMURIUM, Strain/Indicator: TA100, Metabolic Activation: RAT, LIVER, S-9, AROCLOR 1254, Method: PREINCUBATION
[7] = Test System: AMES SALMONELLA TYPHIMURIUM, Strain/Indicator: TA102, Metabolic Activation: NONE, Method: PREINCUBATION

## O=C1CCCc2ccc3c([N+](=O)[O-])c4ccccc4cc3c21
Test System: AMES SALMONELLA TYPHIMURIUM, Strain/Indicator: TA98, Metabolic Activation: NONE
  mutagenic call: inactive; negative
Test System: AMES SALMONELLA TYPHIMURIUM, Strain/Indicator: TA98, Metabolic Activation: S-9
  mutagenic call: inactive; negative
Test System: AMES SALMONELLA TYPHIMURIUM, Strain/Indicator: TA100, Metabolic Activation: NONE
  mutagenic call: inactive; negative
Test System: AMES SALMONELLA TYPHIMURIUM, Strain/Indicator: TA100, Metabolic Activation: S-9
  mutagenic call: inactive; negative

## O=C(/C=C/c1ccccc1)c1ccc(O)cc1
[1]
  mutagenic call: inactive; negative
Test System: AMES SALMONELLA TYPHIMURIUM, Strain/Indicator: TA98, Metabolic Activation: RAT, LIVER, S-9, AROCLOR 1254, Method: STANDARD PLATE
  mutagenic call: inactive; negative
[2]
  mutagenic call: inactive; negative
Test System: AMES SALMONELLA TYPHIMURIUM, Strain/Indicator: TA100, Metabolic Activation: RAT, LIVER, S-9, AROCLOR 1254, Method: STANDARD PLATE
  mutagenic call: inactive; negative

## O=[N+]([O-])c1[nH]cnc1-c1ccccc1
[2]
  mutagenic call: active; positive

## O=C1c2ccccc2C(=O)c2c(O)cccc21
[3]
  mutagenic call: inactive; negative
Test System: AMES SALMONELLA TYPHIMURIUM, Strain/Indicator: TA98, Metabolic Activation: RAT, LIVER, S-9, AROCLOR 1254 (10%), Method: PREINCUBATION
  mutagenic call: inactive; negative
[4]
  mutagenic call: inactive; negative
[5]
  mutagenic call: inactive; negative
Test System: AMES SALMONELLA TYPHIMURIUM, Strain/Indicator: TA100, Metabolic Activation: RAT, LIVER, S-9, AROCLOR 1254 (10%), Method: PREINCUBATION
  mutagenic call: inactive; negative
[6]
  mutagenic call: inactive; negative
[7]
  mutagenic call: inactive; negative
Test System: AMES SALMONELLA TYPHIMURIUM, Strain/Indicator: TA102, Metabolic Activation: RAT, LIVER, S-9, AROCLOR 1254 (10%), Method: PREINCUBATION
  mutagenic call: inactive; negative
Test System: AMES SALMONELLA TYPHIMURIUM, Strain/Indicator: TA1537, Metabolic Activation: NONE, Method: PREINCUBATION
  mutagenic call: active; positive
Test System: AMES SALMONELLA TYPHIMURIUM, Strain/Indicator: TA1537, Metabolic Activation: RAT, LIVER, S-9, AROCLOR 1254, Method: PREINCUBATION
  mutagenic call: active; positive
Test System: UDS RODENT HEPATOCYTES, Strain/Indicator: THY INCORP, Metabolic Activation: NONE
  mutagenic call: active; positive

## CC(=O)OCC(COC(C)=O)OC(C)=O
Test System: Ames Salmonella typhimurium, Strain/Indicator: TA98, Metabolic Activation: None, Method: Preincubation
  mutagenic call: inactive; negative
Test System: Ames Salmonella typhimurium, Strain/Indicator: TA98, Metabolic Activation: Rat, Liver, S9, Sodium phenobarbital and 5,6-benzoflavone, Method: Preincubation
  mutagenic call: inactive; negative
Test System: Ames Salmonella typhimurium, Strain/Indicator: TA100, Metabolic Activation: None, Method: Preincubation
  mutagenic call: inactive; negative
Test System: Ames Salmonella typhimurium, Strain/Indicator: TA100, Metabolic Activation: Rat, Liver, S9, Sodium phenobarbital and 5,6-benzoflavone, Method: Preincubation
  mutagenic call: inactive; negative
Test System: Ames Salmonella typhimurium, Strain/Indicator: TA1535, Metabolic Activation: None, Method: Preincubation
  mutagenic call: inactive; negative
Test System: Ames Salmonella typhimurium, Strain/Indicator: TA1535, Metabolic Activation: Rat, Liver, S9, Sodium phenobarbital and 5,6-benzoflavone, Method: Preincubation
  mutagenic call: inactive; negative
Test System: Ames Salmonella typhimurium, Strain/Indicator: TA1537, Metabolic Activation: None, Method: Preincubation
  mutagenic call: inactive; negative
Test System: Ames Salmonella typhimurium, Strain/Indicator: TA1537, Metabolic Activation: Rat, Liver, S9, Sodium phenobarbital and 5,6-benzoflavone, Method: Preincubation
  mutagenic call: inactive; negative
Test System: E. coli, Strain/Indicator: WP2uvrA/pKM101, Metabolic Activation: None, Method: Preincubation
  mutagenic call: inactive; negative
Test System: E. coli, Strain/Indicator: WP2uvrA/pKM101, Metabolic Activation: Rat, Liver, S9, Sodium phenobarbital and 5,6-benzoflavone, Method: Preincubation
  mutagenic call: inactive; negative

## CC(=O)Nc1ccc(Oc2ccc(N(O)C=O)cc2)cc1
Test System: AMES SALMONELLA TYPHIMURIUM, Strain/Indicator: TA98(1,8-DNP6), Metabolic Activation: NONE, Method: PREINCUBATION
  mutagenic call: active; positive
Test System: AMES SALMONELLA TYPHIMURIUM, Strain/Indicator: TA98(1,8-DNP6), Metabolic Activation: RAT, LIVER, S-9, AROCLOR 1254, Method: PREINCUBATION
  mutagenic call: active; positive
Test System: AMES SALMONELLA TYPHIMURIUM, Strain/Indicator: TA98(NR), Metabolic Activation: NONE, Method: PREINCUBATION
  mutagenic call: active; positive
Test System: AMES SALMONELLA TYPHIMURIUM, Strain/Indicator: TA98(NR), Metabolic Activation: RAT, LIVER, S-9, AROCLOR 1254, Method: PREINCUBATION
  mutagenic call: active; positive
[3]
  mutagenic call: active; positive
[4]
  mutagenic call: active; positive
Test System: AMES SALMONELLA TYPHIMURIUM, Strain/Indicator: TA100(NR), Metabolic Activation: NONE, Method: PREINCUBATION
  mutagenic call: active; positive
Test System: AMES SALMONELLA TYPHIMURIUM, Strain/Indicator: TA100(NR), Metabolic Activation: RAT, LIVER, S-9, AROCLOR 1254, Method: PREINCUBATION
  mutagenic call: active; positive
[5]
  mutagenic call: active; positive
[6]
  mutagenic call: active; positive

## O=[N+]([O-])c1ccc2ccc3cccc([N+](=O)[O-])c3c2c1
Test System: AMES SALMONELLA TYPHIMURIUM, Strain/Indicator: TA98(1,8-DNP6), Metabolic Activation: NONE, Method: STANDARD PLATE
  mutagenic call: active; positive
Test System: AMES SALMONELLA TYPHIMURIUM, Strain/Indicator: TA98(NR), Metabolic Activation: NONE, Method: STANDARD PLATE
  mutagenic call: active; positive
[1]
  mutagenic call: active; positive
[2]
  mutagenic call: active; positive
Test System: AMES SALMONELLA TYPHIMURIUM, Strain/Indicator: YG1021, Metabolic Activation: NONE, Method: STANDARD PLATE
  mutagenic call: active; positive
Test System: AMES SALMONELLA TYPHIMURIUM, Strain/Indicator: YG1024, Metabolic Activation: NONE, Method: STANDARD PLATE
  mutagenic call: active; positive
Test System: AMES SALMONELLA TYPHIMURIUM, Strain/Indicator: YG1026, Metabolic Activation: NONE, Method: STANDARD PLATE
  mutagenic call: active; positive
Test System: AMES SALMONELLA TYPHIMURIUM, Strain/Indicator: YG1029, Metabolic Activation: NONE, Method: STANDARD PLATE
  mutagenic call: active; positive

## N=NCO
Test System: AMES SALMONELLA TYPHIMURIUM, Strain/Indicator: TA1535, Metabolic Activation: NONE, Method: STANDARD PLATE
  mutagenic call: active; positive
Test System: E. COLI, Strain/Indicator: WP2, Metabolic Activation: NONE, Method: STANDARD PLATE
  mutagenic call: active; positive
Test System: E. COLI, Strain/Indicator: WP2 UVRA, Metabolic Activation: NONE, Method: STANDARD PLATE
  mutagenic call: active; positive

## CCCCCCCCCCCCCCCc1cccc(O)c1C(=O)O
End Point: In vivo micronucleus, Test System: Peripheral blood erythrocytes, Species: Mouse, Strain/Sex: CD-1, Route: Oral
  mutagenic call: inactive; negative

## CN(C)CCNC(=O)c1cccc2c(=O)c3ccccc3sc12
Test System: AMES SALMONELLA TYPHIMURIUM, Strain/Indicator: TA1537, Metabolic Activation: NONE, Method: STANDARD PLATE
  mutagenic call: active; positive

## CC(C)(C)[N+](=O)[O-]
[5]
  mutagenic call: inactive; negative
Test System: AMES SALMONELLA TYPHIMURIUM, Strain/Indicator: TA100, Metabolic Activation: RAT, LIVER, S-9, AROCLOR, Method: PREINCUBATION
  mutagenic call: inactive; negative
[7]
  mutagenic call: inactive; negative
Test System: AMES SALMONELLA TYPHIMURIUM, Strain/Indicator: TA102, Metabolic Activation: RAT, LIVER, S-9, AROCLOR, Method: PREINCUBATION
  mutagenic call: inactive; negative

## Cc1cc2nc3ccc(C)c(N)c3nc2cc1N
[3]
  mutagenic call: inactive; negative
Test System: AMES SALMONELLA TYPHIMURIUM, Strain/Indicator: TA98, Metabolic Activation: RAT, LIVER, S-9, PCB, Method: PREINCUBATION
  mutagenic call: active; positive

## C[C@@H]1CC[C@@]2(OC1)O[C@H]1CC3[C@@H]4CC=C5C[C@@H](O[C@@H]6O[C@H](CO)[C@@H](O[C@@H]7O[C@@H](C)[C@H](O)[C@@H](O)[C@H]7O)[C@H](O)[C@H]6O[C@@H]6O[C@@H](C)[C@H](O)[C@@H](O)[C@H]6O)CC[C@]5(C)[C@H]4CC[C@]3(C)[C@H]1[C@@H]2C (some centres undefined)
[1]
  mutagenic call: inactive; negative
Test System: AMES SALMONELLA TYPHIMURIUM, Strain/Indicator: TA98, Metabolic Activation: RAT, LIVER, S-9, PHENOBARBITAL, Method: STANDARD PLATE
  mutagenic call: inactive; negative
[2]
  mutagenic call: inactive; negative
Test System: AMES SALMONELLA TYPHIMURIUM, Strain/Indicator: TA100, Metabolic Activation: RAT, LIVER, S-9, PHENOBARBITAL, Method: STANDARD PLATE
  mutagenic call: inactive; negative

## O=[N+]([O-])[O-].O=[N+]([O-])[O-].O=[N+]([O-])[O-].[Gd+3]
Test System: UDS HUMAN LYMPHOCYTES, Strain/Indicator: THYMIDINE INCORPORATION, Metabolic Activation: NONE, Method: LIQUID SCINTILLATION COUNTING
  mutagenic call: active; positive
